This passage reports Ki results from patent US8796289B2 (AbbVie Inc., priority 2011, dated 2014).

In one experiment the target is GST-tagged-Wee1 kinase (Homo sapiens, UniProt P30291). The experiment is described as follows: Wee1 time-resolved fluorescence equilibrium binding assay (displacement of Oregon Green-labeled ATP-competitive kinase probe).
Sequence of GST-tagged-Wee1 kinase (P30291 whole entry): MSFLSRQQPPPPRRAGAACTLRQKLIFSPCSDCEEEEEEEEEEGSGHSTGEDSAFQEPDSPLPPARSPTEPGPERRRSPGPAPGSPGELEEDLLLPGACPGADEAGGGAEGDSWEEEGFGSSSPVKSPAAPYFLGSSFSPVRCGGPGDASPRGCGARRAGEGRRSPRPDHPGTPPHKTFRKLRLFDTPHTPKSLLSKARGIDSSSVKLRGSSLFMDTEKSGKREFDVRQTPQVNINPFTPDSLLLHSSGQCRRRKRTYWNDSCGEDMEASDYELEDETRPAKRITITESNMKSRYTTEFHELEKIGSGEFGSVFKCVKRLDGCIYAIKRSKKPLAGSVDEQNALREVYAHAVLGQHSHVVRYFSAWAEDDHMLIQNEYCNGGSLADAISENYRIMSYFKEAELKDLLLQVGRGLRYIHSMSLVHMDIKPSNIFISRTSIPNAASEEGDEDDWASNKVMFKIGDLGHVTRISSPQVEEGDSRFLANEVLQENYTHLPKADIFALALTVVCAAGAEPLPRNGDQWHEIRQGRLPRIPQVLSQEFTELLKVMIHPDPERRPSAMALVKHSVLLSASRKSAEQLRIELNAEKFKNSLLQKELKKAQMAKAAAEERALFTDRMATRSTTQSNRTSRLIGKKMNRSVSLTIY
Details: not given
On the procedure: Wee1 kinase was assayed using a time-resolved fluorescence equilibrium binding assay monitoring displacement of a rapidly reversible Oregon Green-labeled ATP-competitive kinase probe (N-(2-(2-(2-(4-(4-(5-chloro-4-(2-(1-hydroxycyclobutyl)thiazol-5-yl)-1H-pyrrolo[2,3-b]pyridin-2-yl)phenyl)piperazin-1-yl)ethoxy)ethoxy)ethyl)-2′,7′-difluoro-3′,6′-dihydroxy-3-oxo-3H-spiro[isobenzofuran-1,9′-xanthene]-5-carboxamide) by competitive Wee1 inhibitors.
`CN1Cc2cc(Nc3ncc4c(=O)n(-c5ccccc5Cl)nc(-c5cccs5)c4n3)ccc2C2(CC2)C1` [Example 123, 6-(2-chlorophenyl)-2-[(2′-methyl-2′,3′-dihydro-1′H-spiro[cyclopropane-1,4′-isoquinolin]-7′-yl)amino]-8-(2-thienyl)pyrimido[4,5-d]pyridazin-5(6H)-one]: the affinity, expressed as Ki, was 2 nM.
On the same count and under the same terms, under `Cc1nn(-c2c(Cl)cccc2Cl)c(=O)c2cnc(Nc3ccc4c(c3)CN(C(=O)CO)CC43CC3)nc12` [Example 426, 6-(2,6-dichlorophenyl)-2-{[2′-(hydroxyacetyl)-2′,3′-dihydro-1′H-spiro[cyclopropane-1,4′-isoquinolin]-7′-yl]amino}-8-methylpyrimido[4,5-d]pyridazin-5(6H)-one] stands 0.11 nM.
Still for that read-out and setting: then `CN1CCN(Cc2cccc(-c3nn(-c4c(Cl)cccc4Cl)c(=O)c4cnc(Nc5ccc(N6CCN(C)CC6)cc5)nc34)c2)CC1` [Example 215, 6-(2,6-dichlorophenyl)-8-{3-[(4-methylpiperazin-1-yl)methyl]phenyl}-2-{[4-(4-methylpiperazin-1-yl)phenyl]amino}pyrimido[4,5-d]pyridazin-5(6H)-one], with 0.2 nM.
The compound `COCc1nn(-c2c(Cl)cccc2Cl)c(=O)c2cnc(Nc3ccc4c(c3)CN(C)CC43CC3)nc12` [Example 429, 6-(2,6-dichlorophenyl)-8-(methoxymethyl)-2-[(2′-methyl-2′,3′-dihydro-1′H-spiro[cyclopropane-1,4′-isoquinolin]-7′-yl)amino]pyrimido[4,5-d]pyridazin-5(6H)-one] registered a Ki of 0.48 nM.
On the same count and under the same terms, under `CC(O)Cn1nc(-c2ccccn2)c2nc(Nc3ccc4c(c3)CN(C)CC4(C)C)ncc2c1=O` (centres unmarked) [Example 288, 6-(2-hydroxypropyl)-8-(pyridin-2-yl)-2-[(2,4,4-trimethyl-1,2,3,4-tetrahydroisoquinolin-7-yl)amino]pyrimido[4,5-d]pyridazin-5(6H)-one] stands 172 nM; under `O=c1c2cnc(Nc3ccc(N4CCNCC4)cc3)nc2c(CO)nn1-c1c(Cl)cccc1Cl` [Example 430, 6-(2,6-dichlorophenyl)-8-(hydroxymethyl)-2-{[4-(piperazin-1-yl)phenyl]amino}pyrimido[4,5-d]pyridazin-5(6H)-one], 0.2 nM.
The compound `CN1CCN(c2ccc(Nc3ncc4c(=O)n(-c5c(Cl)cccc5Cl)nc(-c5cccc(N6CCCC6)n5)c4n3)cc2)CC1` [Example 180, 6-(2,6-dichlorophenyl)-2-{[4-(4-methylpiperazin-1-yl)phenyl]amino}-8-[6-(pyrrolidin-1-yl)pyridin-2-yl]pyrimido[4,5-d]pyridazin-5(6H)-on] displayed a Ki of 2 nM.
As to `Cc1nn(-c2c(Cl)cccc2Cl)c(=O)c2cnc(Nc3cccc(N4CCN(C)CC4)c3)nc12` [Example 511, 6-(2,6-dichlorophenyl)-8-methyl-2-{[3-(4-methylpiperazin-1-yl)phenyl]amino}pyrimido[4,5-d]pyridazin-5(6H)-one], the Ki came out at 0.46 nM.
`CC(O)Cn1nc(-c2ccccn2)c2nc(Nc3ccc4c(c3)CNCC4(C)C)ncc2c1=O` (centres unmarked) [Example 295, 2-[(4,4-dimethyl-1,2,3,4-tetrahydroisoquinolin-7-yl)amino]-6-(2-hydroxypropyl)-8-(pyridin-2-yl)pyrimido[4,5-d]pyridazin-5(6H)-one] had an inhibition constant Ki of 501 nM.
Compound `O=c1c2cnc(Nc3ccc4c(c3)CNCC4)nc2c(-c2cncs2)nn1-c1c(Cl)cccc1Cl` [Example 318, 6-(2,6-dichlorophenyl)-2-(1,2,3,4-tetrahydroisoquinolin-7-ylamino)-8-(1,3-thiazol-5-yl)pyrimido[4,5-d]pyridazin-5(6H)-one] returned a Ki of 0.26 nM.
On the same count and under the same terms, under `O=c1c2cnc(Nc3ccc4c(c3)CNCC43CC3)nc2c(-c2cncs2)nn1-c1c(Cl)cccc1Cl` [Example 315, 6-(2,6-dichlorophenyl)-2-(2′,3′-dihydro-1′H-spiro[cyclopropane-1,4′-isoquinolin]-7′-ylamino)-8-(1,3-thiazol-5-yl)pyrimido[4,5-d]pyridazin-5(6H)-one] stands 1.9 nM; under `CNCCn1ccc(-c2nn(-c3c(Cl)cccc3Cl)c(=O)c3cnc(Nc4ccc(N5CCN(C)CC5)cc4)nc23)n1` [Example 261, 6-(2,6-dichlorophenyl)-8-{1-[2-(methylamino)ethyl]-1H-pyrazol-3-yl}-2-{[4-(4-methylpiperazin-1-yl)phenyl]amino}pyrimido[4,5-d]pyridazin-5(6H)-one], 0.3 nM.
Still for that read-out and setting: then `C=CCn1nc(-c2cccc(OC)c2)c2nc(Nc3ccc(N4CCN(C)CC4)cc3)ncc2c1=O` [Example 63, 6-allyl-8-(3-methoxyphenyl)-2-{[4-(4-methylpiperazin-1-yl)phenyl]amino}pyrimido[4,5-d]pyridazin-5(6H)-one], with 5 nM.
On the same count and under the same terms, then `CN1CCN(c2ccc(Nc3ncc4c(=O)n(-c5c(Cl)cncc5Cl)nc(-c5ccncc5)c4n3)cc2)CC1` [Example 358, 6-(3,5-dichloropyridin-4-yl)-2-{[4-(4-methylpiperazin-1-yl)phenyl]amino}-8-(pyridin-4-yl)pyrimido[4,5-d]pyridazin-5(6H)-one], with 0.47 nM; and `C=CCn1nc(-c2ccccc2)c2nc(Nc3ccc(CN(C)C)cc3)ncc2c1=O` [Example 143, 6-allyl-2-({4-[(dimethylamino)methyl]phenyl}amino)-8-phenylpyrimido[4,5-d]pyridazin-5(6H)-one], with 39 nM.
As to `Cc1cc(Nc2ncc3c(=O)n(-c4ccccc4C)nc(-c4ccccc4)c3n2)ccc1N1CCN(C(C)C)CC1` [Example 170, 2-{[4-(4-isopropylpiperazin-1-yl)-3-methylphenyl]amino}-6-(2-methylphenyl)-8-phenylpyrimido[4,5-d]pyridazin-5(6H)-one], the Ki amounted to 0.7 nM.
The same measure, in the same setting: then `CC(=O)N1Cc2cc(Nc3ncc4c(=O)n(-c5c(Cl)cccc5Cl)nc(C)c4n3)ccc2C(C)(C)C1` [Example 439, 2-[(2-acetyl-4,4-dimethyl-1,2,3,4-tetrahydroisoquinolin-7-yl)amino]-6-(2,6-dichlorophenyl)-8-methylpyrimido[4,5-d]pyridazin-5(6H)-one], with 0.69 nM; and `Cc1nn(-c2c(Cl)cccc2Cl)c(=O)c2cnc(Nc3cccc(N4CCCCC4)c3)nc12` [Example 504, 6-(2,6-dichlorophenyl)-8-methyl-2-{[3-(piperidin-1-yl)phenyl]amino}pyrimido[4,5-d]pyridazin-5(6H)-one], with 3.7 nM.
Still for that read-out and setting: under `Cc1cccc(-c2nn(-c3ccccc3)c(=O)c3cnc(Nc4ccc(N5CCN(C)CC5)cc4)nc23)c1` [Example 50, 8-(3-methylphenyl)-2-{[4-(4-methylpiperazin-1-yl)phenyl]amino}-6-phenylpyrimido[4,5-d]pyridazin-5(6H)-one] stands 5 nM; under `CC(=O)N1CCc2ccc(Nc3ncc4c(=O)n(-c5c(Cl)cccc5Cl)nc(C(F)F)c4n3)cc2C1` [Example 477, 2-[(2-acetyl-1,2,3,4-tetrahydroisoquinolin-7-yl)amino]-6-(2,6-dichlorophenyl)-8-(difluoromethyl)pyrimido[4,5-d]pyridazin-5(6H)-one], 0.67 nM; under `CCc1nn(-c2c(Cl)cccc2Cl)c(=O)c2cnc(Nc3ccc4c(c3)CNCC43CC3)nc12` [Example 404, 6-(2,6-dichlorophenyl)-2-(2′,3′-dihydro-1′H-spiro[cyclopropane-1,4′-isoquinolin]-7′-ylamino)-8-ethylpyrimido[4,5-d]pyridazin-5(6H)-one], 0.25 nM.
On the same count and under the same terms, then `CN1CCC(n2nc(-c3ccccn3)c3nc(Nc4ccc5c(c4)CNCC5(C)C)ncc3c2=O)CC1` [Example 329, 2-[(4,4-dimethyl-1,2,3,4-tetrahydroisoquinolin-7-yl)amino]-6-(1-methylpiperidin-4-yl)-8-(pyridin-2-yl)pyrimido[4,5-d]pyridazin-5(6H)-one], with 27 nM; and `Cc1nn(-c2c(Cl)cccc2Cl)c(=O)c2cnc(Nc3ccc(OC4CCN(C)CC4)cc3)nc12` [Example 503, 6-(2,6-dichlorophenyl)-8-methyl-2-({4-[(1-methylpiperidin-4-yl)oxy]phenyl}amino)pyrimido[4,5-d]pyridazin-5(6H)-one], with 0.1 nM; and `CC1(C)CNCc2cc(Nc3ncc4c(=O)n(-c5cccc6ccccc56)nc(-c5ccccn5)c4n3)ccc21` [Example 306, 2-[(4,4-dimethyl-1,2,3,4-tetrahydroisoquinolin-7-yl)amino]-6-(naphthalen-1-yl)-8-(pyridin-2-yl)pyrimido[4,5-d]pyridazin-5(6H)-one], with 50 nM.
Regarding `Cc1nn(-c2c(Cl)cccc2Cl)c(=O)c2cnc(Nc3cccc(N4CCNCC4)c3)nc12` [Example 506, 6-(2,6-dichlorophenyl)-8-methyl-2-{[3-(piperazin-1-yl)phenyl]amino}pyrimido[4,5-d]pyridazin-5(6H)-one], the Ki came to 0.54 nM.
On to `CN1Cc2cc(Nc3ncc4c(=O)n(C5CCCCC5)nc(-c5ccccn5)c4n3)ccc2C(C)(C)C1` [Example 262, 6-cyclohexyl-8-(pyridin-2-yl)-2-[(2,4,4-trimethyl-1,2,3,4-tetrahydroisoquinolin-7-yl)amino]pyrimido[4,5-d]pyridazin-5(6H)-one], for which the affinity, expressed as Ki, was 590 nM.
Same read-out and setting: under `CN1CCN(c2ccc(Nc3ncc4c(=O)n(-c5c(Cl)cccc5Cl)nc(-c5cncn5C)c4n3)cc2)CC1` [Example 203, 6-(2,6-dichlorophenyl)-8-(1-methyl-1H-imidazol-5-yl)-2-{[4-(4-methylpiperazin-1-yl)phenyl]amino}pyrimido[4,5-d]pyridazin-5(6H)-one] stands 0.2 nM; under `CS(=O)(=O)N1CCN(c2ccc(Nc3ncc4c(=O)n(-c5c(Cl)cccc5Cl)nc(-c5ccncc5)c4n3)cc2)CC1` [Example 380, 6-(2,6-dichlorophenyl)-2-({4-[4-(methylsulfonyl)piperazin-1-yl]phenyl}amino)-8-(pyridin-4-yl)pyrimido[4,5-d]pyridazin-5(6H)-one], 0.61 nM.

Still in this experiment, the particulars now being: read-out: Wee-1 inhibition Ki.
As for `Cc1nn(-c2c(Cl)cccc2Cl)c(=O)c2cnc(Nc3ccc4c(c3)CNCC4)nc12` [Example 395], the Ki is 1 nM.

As usually defined, the Ki is a measure of affinity in units of concentration, obtained from inhibition or displacement.
